From the NIST ThermoML archive (doi:10.1007/s10765-009-0667-2)
Where “and” joins values, the source holds several entries; their conditions need not be identical. Equal values may be shown once. Numbers after ± are expanded uncertainties.

How the values were obtained:
[1] = 101 kPa, Liquid; for mass density: Vibrating tube method
[2] = xn = mol fraction of the nth substance listed; settings: 101 kPa, Liquid; for mass density: Vibrating tube method

## Cc1ccccc1 [toluene]
[1]; 308.15 K
  viscosity: 0.494 ± 0.0093 mPa·s
  mass density: 852.8 ± 0.2 kg/m3
[1]; 313.15 K
  viscosity: 0.4676 ± 0.0089 mPa·s and 0.4755 ± 0.009 mPa·s
  mass density: 848.3 ± 0.2 kg/m3
[1]; 318.15 K
  mass density: 848.3 ± 0.2 kg/m3

## c1ccccc1 [benzene]
[1]; 308.15 K
  viscosity: 0.5272 ± 0.0098 mPa·s
  mass density: 862.9 ± 0.2 kg/m3
[1]; 313.15 K
  viscosity: 0.4942 ± 0.0093 mPa·s
  mass density: 857.7 ± 0.2 kg/m3

## CCc1ccccc1 [ethylbenzene] + Cc1ccccc1
[2]; 308.15 K, x2 = 0
  mass density: 853.7 ± 0.2 kg/m3
  viscosity: 0.5652 ± 0.01 mPa·s
[2]; 308.15 K, x2 = 0.0424
  mass density: 853.7 ± 0.2 kg/m3
  viscosity: 0.5587 ± 0.01 mPa·s
[2]; 308.15 K, x2 = 0.128
  mass density: 853.7 ± 0.2 kg/m3
  viscosity: 0.5587 ± 0.01 mPa·s
[2]; 308.15 K, x2 = 0.2164
  mass density: 853.6 ± 0.2 kg/m3
  viscosity: 0.5471 ± 0.01 mPa·s
[2]; 308.15 K, x2 = 0.2928
  mass density: 853.6 ± 0.2 kg/m3
  viscosity: 0.5408 ± 0.01 mPa·s
[2]; 308.15 K, x2 = 0.393
  mass density: 853.5 ± 0.2 kg/m3
  viscosity: 0.5379 ± 0.0099 mPa·s
[2]; 308.15 K, x2 = 0.4922
  mass density: 853.4 ± 0.2 kg/m3
  viscosity: 0.5349 ± 0.0099 mPa·s
[2]; 308.15 K, x2 = 0.5716
  mass density: 853.4 ± 0.2 kg/m3
  viscosity: 0.5243 ± 0.0097 mPa·s
[2]; 308.15 K, x2 = 0.7107
  mass density: 853.2 ± 0.2 kg/m3
  viscosity: 0.5125 ± 0.0096 mPa·s
[2]; 308.15 K, x2 = 0.8425
  mass density: 853 ± 0.2 kg/m3
  viscosity: 0.5108 ± 0.0095 mPa·s
[2]; 313.15 K, x2 = 0
  viscosity: 0.5294 ± 0.0099 mPa·s
[2]; 313.15 K, x2 = 0.0424
  viscosity: 0.5306 ± 0.0098 mPa·s
[2]; 313.15 K, x2 = 0.128
  viscosity: 0.525 ± 0.0098 mPa·s
[2]; 313.15 K, x2 = 0.2164
  viscosity: 0.5185 ± 0.0097 mPa·s
[2]; 313.15 K, x2 = 0.2928
  viscosity: 0.5124 ± 0.0096 mPa·s
[2]; 313.15 K, x2 = 0.393
  viscosity: 0.5186 ± 0.0097 mPa·s
[2]; 313.15 K, x2 = 0.4922
  viscosity: 0.5022 ± 0.0094 mPa·s
[2]; 313.15 K, x2 = 0.5716
  viscosity: 0.4968 ± 0.0093 mPa·s
[2]; 313.15 K, x2 = 0.7107
  viscosity: 0.4853 ± 0.0092 mPa·s
[2]; 313.15 K, x2 = 0.8425
  viscosity: 0.4781 ± 0.0091 mPa·s
[2]; 318.15 K, x2 = 0
  mass density: 849.5 ± 0.2 kg/m3
[2]; 318.15 K, x2 = 0.0424
  mass density: 849.5 ± 0.2 kg/m3
[2]; 318.15 K, x2 = 0.128
  mass density: 849.4 ± 0.2 kg/m3
[2]; 318.15 K, x2 = 0.2164
  mass density: 849.3 ± 0.2 kg/m3
[2]; 318.15 K, x2 = 0.2928
  mass density: 849.3 ± 0.2 kg/m3
[2]; 318.15 K, x2 = 0.393
  mass density: 849.2 ± 0.2 kg/m3
[2]; 318.15 K, x2 = 0.4922
  mass density: 849.1 ± 0.2 kg/m3
[2]; 318.15 K, x2 = 0.5716
  mass density: 849 ± 0.2 kg/m3
[2]; 318.15 K, x2 = 0.7107
  mass density: 848.8 ± 0.2 kg/m3
[2]; 318.15 K, x2 = 0.8425
  mass density: 848.6 ± 0.2 kg/m3

## CCc1ccccc1 [ethylbenzene]
[1]; 308.15 K
  viscosity: 0.5652 ± 0.01 mPa·s
  mass density: 853.7 ± 0.2 kg/m3
[1]; 313.15 K
  viscosity: 0.5294 ± 0.0099 mPa·s
  mass density: 849.5 ± 0.2 kg/m3
[1]; 318.15 K
  mass density: 849.5 ± 0.2 kg/m3

## c1ccccc1 [benzene] + C1CCCCCCC1
[2]; 308.15 K, x1 = 1
  mass density: 862.9 ± 0.2 kg/m3
  viscosity: 0.5272 ± 0.0098 mPa·s
[2]; 313.15 K, x1 = 1
  mass density: 857.7 ± 0.2 kg/m3
  viscosity: 0.4942 ± 0.0093 mPa·s

## Cc1ccccc1 [toluene] + CCCCCCC
[2]; 308.15 K, x2 = 0
  mass density: 852.8 ± 0.2 kg/m3
  viscosity: 0.494 ± 0.0093 mPa·s
[2]; 308.15 K, x2 = 0.0901
  mass density: 830.9 ± 0.2 kg/m3
  viscosity: 0.4631 ± 0.0088 mPa·s
[2]; 308.15 K, x2 = 0.1949
  mass density: 807 ± 0.3 kg/m3
  viscosity: 0.4406 ± 0.0085 mPa·s
[2]; 308.15 K, x2 = 0.299
  mass density: 786.6 ± 0.3 kg/m3
  viscosity: 0.415 ± 0.0081 mPa·s
[2]; 308.15 K, x2 = 0.3959
  mass density: 765.9 ± 0.3 kg/m3
  viscosity: 0.3967 ± 0.0078 mPa·s
[2]; 308.15 K, x2 = 0.4836
  mass density: 749.6 ± 0.3 kg/m3
  viscosity: 0.3861 ± 0.0077 mPa·s
[2]; 308.15 K, x2 = 0.5809
  mass density: 732.8 ± 0.3 kg/m3
  viscosity: 0.3811 ± 0.0076 mPa·s
[2]; 308.15 K, x2 = 0.6809
  mass density: 716.6 ± 0.3 kg/m3
  viscosity: 0.3666 ± 0.0074 mPa·s
[2]; 308.15 K, x2 = 0.792
  mass density: 699.8 ± 0.3 kg/m3
  viscosity: 0.3575 ± 0.0073 mPa·s
[2]; 308.15 K, x2 = 0.8884
  mass density: 686.1 ± 0.3 kg/m3
  viscosity: 0.3605 ± 0.0073 mPa·s
[2]; 313.15 K, x2 = 0
  mass density: 848.3 ± 0.2 kg/m3
  viscosity: 0.4676 ± 0.0089 mPa·s
[2]; 313.15 K, x2 = 0.0901
  mass density: 826.5 ± 0.2 kg/m3
  viscosity: 0.4392 ± 0.0085 mPa·s
[2]; 313.15 K, x2 = 0.1949
  mass density: 802.6 ± 0.3 kg/m3
  viscosity: 0.4129 ± 0.0081 mPa·s
[2]; 313.15 K, x2 = 0.299
  mass density: 782.2 ± 0.3 kg/m3
  viscosity: 0.3944 ± 0.0078 mPa·s
[2]; 313.15 K, x2 = 0.3959
  mass density: 761.6 ± 0.3 kg/m3
  viscosity: 0.377 ± 0.0075 mPa·s
[2]; 313.15 K, x2 = 0.4836
  mass density: 745.4 ± 0.3 kg/m3
  viscosity: 0.3668 ± 0.0074 mPa·s
[2]; 313.15 K, x2 = 0.5809
  mass density: 728.6 ± 0.3 kg/m3
  viscosity: 0.3562 ± 0.0073 mPa·s
[2]; 313.15 K, x2 = 0.6809
  mass density: 712.5 ± 0.3 kg/m3
  viscosity: 0.3488 ± 0.0071 mPa·s
[2]; 313.15 K, x2 = 0.792
  mass density: 695.6 ± 0.3 kg/m3
  viscosity: 0.341 ± 0.007 mPa·s
[2]; 313.15 K, x2 = 0.8884
  mass density: 682 ± 0.3 kg/m3
  viscosity: 0.3367 ± 0.007 mPa·s

## CCCCCCC [heptane]
[1]; 308.15 K
  viscosity: 0.3497 ± 0.0071 mPa·s
  mass density: 671.3 ± 0.3 kg/m3
[1]; 313.15 K
  viscosity: 0.3329 ± 0.0069 mPa·s
  mass density: 667.1 ± 0.3 kg/m3

## CCc1ccccc1 [ethylbenzene] + C1CCCCCCC1
[2]; 308.15 K, x1 = 1
  mass density: 853.7 ± 0.2 kg/m3
  viscosity: 0.5652 ± 0.01 mPa·s
[2]; 313.15 K, x1 = 1
  mass density: 849.5 ± 0.2 kg/m3
  viscosity: 0.5294 ± 0.0099 mPa·s

## C1CCCCCCC1 [cyclooctane]
[1]; 308.15 K
  viscosity: 1.803 ± 0.029 mPa·s
  mass density: 823.6 ± 0.2 kg/m3
[1]; 313.15 K
  viscosity: 1.636 ± 0.027 mPa·s
  mass density: 819.7 ± 0.2 kg/m3

## Cc1ccccc1 [toluene] + c1ccccc1
[2]; 308.15 K, x2 = 0
  mass density: 852.8 ± 0.2 kg/m3
  viscosity: 0.494 ± 0.0093 mPa·s
[2]; 313.15 K, x2 = 0
  mass density: 848.3 ± 0.2 kg/m3
  viscosity: 0.4676 ± 0.0089 mPa·s
